Results published in patent publication US5840684A, “Glycopeptide antibiotic derivatives” (Eli Lilly and Company, priority 1995, dated 1998).
In brackets after ≈: the same amount, converted by molar mass.

Columns and labels:
[1] = system: vancomycin-susceptible enterococci; assay: broth micro-dilution, mean geometric MIC; assay type: cell-based, Enterococcus faecium and Enterococcus faecalis; conditions: enterococci, 24-hour incubation
[2] = system: vancomycin-resistant enterococci; assay: broth micro-dilution, mean geometric MIC; assay type: cell-based, Enterococcus faecium and Enterococcus faecalis; conditions: enterococci, 24-hour incubation
[3] = system: Staphylococcus aureus X400; assay: broth micro-dilution MIC; assay type: cell-based
Method: (§1) The MIC's were determined using a standard broth micro-dilution assay.

[4] = system: Streptococcus pyogenes C203; assay: broth micro-dilution MIC; assay type: cell-based
Method: as §1

[5] = system: Entercoccus faecium 180-1; assay: broth micro-dilution MIC; assay type: cell-based
Method: as §1

[6] = system: Staphylococcus aureus 491; assay: broth micro-dilution MIC; assay type: cell-based
Method: as §1

[7] = system: Staphylococcus aureus SA1199; assay: broth micro-dilution MIC; assay type: cell-based
Method: as §1

[8] = system: Staphylococcus aureus X778; assay: broth micro-dilution MIC; assay type: cell-based
Method: as §1

Entercoccus faecium 276 = assay: broth micro-dilution MIC; assay type: cell-based
Method: as §1

[9] = system: Staphylococcus aureus 446; assay: broth micro-dilution MIC; assay type: cell-based
Method: as §1

[10] = system: Staphylococcus aureus S13E; assay type: cell-based
Method: as §1

[11] = system: Staphylococcus haemolyticus 105; assay: broth micro-dilution MIC; assay type: cell-based
Method: (§2) The formula I compounds have in vitro and in vivo activity against Gram-positive pathogenic bacteria. The MIC's were determined using a standard broth micro-dilution assay.

Entercoccus faecium 180 = assay: broth micro-dilution MIC; assay type: cell-based; conditions: Entercoccus faecium 180
Method: as §2

[12] = system: Streptococcus pneumoniae P1; assay: broth micro-dilution MIC; assay type: cell-based
Method: as §2

[13] = system: Staphylococcus haemolyticus 415; assay: broth micro-dilution MIC; assay type: cell-based
Method: as §2

[14] = system: Staphylococcus epidermidis 270; assay: broth micro-dilution MIC; assay type: cell-based
Method: as §2

Entercoccus faecium 2041 = assay: broth micro-dilution MIC; assay type: cell-based; conditions: Entercoccus faecium 2041
Method: as §2

[15] = system: Staphylococcus aureus 447; assay: broth micro-dilution MIC; assay type: cell-based
Method: as §1

[16] = system: Staphylococcus aureus SA1199A; assay: broth micro-dilution MIC; assay type: cell-based
Method: as §1

[17] = system: Staphylococcus aureus SA1199B; assay type: cell-based
Method: as §1

[18] = system: Enterococcus gallinarum 245; assay: broth micro-dilution MIC; assay type: cell-based; conditions: Enterococcus gallinarum 245
Method: as §2

Compound | mean geometric MIC, Vancomycin Sensitive Strains [1] | mean geometric MIC, Vancomycin Resistant Strains [2] | MIC [3] | MIC [4] | MIC [5] | MIC [6] | MIC [7] | MIC [8] | MIC [9] | MIC [10] | MIC [11] | MIC (Entercoccus faecium 180) | MIC [12] | MIC [13] | MIC [14] | MIC (Entercoccus faecium 2041) | MIC [15] | MIC [16] | MIC [17] | MIC [18] | other results
CNC(CC(C)C)C(=O)NC1C(=O)NC(CC(N)=O)C(=O)NC2C(=O)NC3C(=O)NC(C(=O)NC(C(=O)O)c4cc(O)cc(O)c4-c4cc3ccc4O)C(OC3CC(C)(N)C(O)C(C)O3)c3ccc(c(Cl)c3)Oc3cc2cc(c3OC2OC(CO)C(O)C(O)C2OC2CC(C)(NCC=Cc3ccccc3)C(O)C(C)O2)Oc2ccc(cc2Cl)C1O (stereo not drawn) [Compound 38] | 0.42 µg/mL | 4.0 µg/mL | 1 µg/mL (≈ 0.585 µM) | ≤ 0.06 µg/mL | ≤ 0.06 µg/mL | 0.5 µg/mL (≈ 0.293 µM) | 1 µg/mL (≈ 0.585 µM) | 0.5 µg/mL (≈ 0.293 µM) | 0.5 µg/mL (≈ 0.293 µM) | ≤ 0.06 µg/mL | 1 µg/mL (≈ 0.585 µM) | ≤ 0.06 µg/mL | ≤ 0.06 µg/mL | 1 µg/mL (≈ 0.585 µM) | 0.5 µg/mL (≈ 0.293 µM) | ≤ 0.06 µg/mL |  |  |  |  | MIC (Entercoccus faecium 276): 0.5 µg/mL (≈ 0.293 µM)
CNC(CC(C)C)C(=O)NC1C(=O)NC(CC(N)=O)C(=O)NC2C(=O)NC3C(=O)NC(C(=O)NC(C(=O)O)c4cc(O)cc(O)c4-c4cc3ccc4O)C(OC3CC(C)(N)C(O)C(C)O3)c3ccc(c(Cl)c3)Oc3cc2cc(c3OC2OC(CO)C(O)C(O)C2OC2CC(C)(NCCc3cccc(OCc4ccccc4)c3)C(O)C(C)O2)Oc2ccc(cc2Cl)C1O (stereo not drawn) [Compound 69] | 0.44 µg/mL | 13 µg/mL | 0.5 µg/mL (≈ 0.277 µM) |  | ≤ 0.06 µg/mL | 1 µg/mL (≈ 0.555 µM) | 1 µg/mL (≈ 0.555 µM) |  | 1 µg/mL (≈ 0.555 µM) |  | 4 µg/mL (≈ 2.22 µM) | 4 µg/mL (≈ 2.22 µM) |  | 8 µg/mL (≈ 4.44 µM) | 2 µg/mL (≈ 1.11 µM) |  | 1 µg/mL (≈ 0.555 µM) | ≤ 0.06 µg/mL | 2 µg/mL (≈ 1.11 µM) | 8 µg/mL (≈ 4.44 µM) | MIC (Entercoccus faecium 276): 0.5 µg/mL (≈ 0.277 µM)
CNC(CC(C)C)C(=O)NC1C(=O)NC(CC(N)=O)C(=O)NC2C(=O)NC3C(=O)NC(C(=O)NC(C(=O)O)c4cc(O)cc(O)c4-c4cc3ccc4O)C(OC3CC(C)(N)C(O)C(C)O3)c3ccc(c(Cl)c3)Oc3cc2cc(c3OC2OC(CO)C(O)C(O)C2OC2CC(C)(NCc3ccc(OC(C)=O)c(OC)c3)C(O)C(C)O2)Oc2ccc(cc2Cl)C1O (stereo not drawn) [Compound 99] | 0.76 µg/mL | 72 µg/mL |  |  | ≤ 0.06 µg/mL | 1 µg/mL (≈ 0.565 µM) | 0.5 µg/mL (≈ 0.282 µM) | 0.5 µg/mL (≈ 0.282 µM) | 0.5 µg/mL (≈ 0.282 µM) | 0.5 µg/mL (≈ 0.282 µM) | 8 µg/mL (≈ 4.52 µM) |  |  | 32 µg/mL (≈ 18.1 µM) | 1 µg/mL (≈ 0.565 µM) |  | 2 µg/mL (≈ 1.13 µM) | 0.5 µg/mL (≈ 0.282 µM) | 0.5 µg/mL (≈ 0.282 µM) | 32 µg/mL (≈ 18.1 µM) | 
CNC(CC(C)C)C(=O)NC1C(=O)NC(CC(N)=O)C(=O)NC2C(=O)NC3C(=O)NC(C(=O)NC(C(=O)O)c4cc(O)cc(O)c4-c4cc3ccc4O)C(OC3CC(C)(N)C(O)C(C)O3)c3ccc(c(Cl)c3)Oc3cc2cc(c3OC2OC(CO)C(O)C(O)C2OC2CC(C)(NCc3ccc(N4CCOCC4)cc3)C(O)C(C)O2)Oc2ccc(cc2Cl)C1O (stereo not drawn) [Compound 147] | 1.3 µg/mL |  | 4 µg/mL (≈ 2.26 µM) | ≤ 0.06 µg/mL | 2 µg/mL (≈ 1.13 µM) | ≤ 0.06 µg/mL | 0.5 µg/mL (≈ 0.283 µM) |  | 0.5 µg/mL (≈ 0.283 µM) | 1 µg/mL (≈ 0.566 µM) | 1 µg/mL (≈ 0.566 µM) | 2 µg/mL (≈ 1.13 µM) | ≤ 0.06 µg/mL | 8 µg/mL (≈ 4.53 µM) |  | ≤ 0.06 µg/mL |  | ≤ 0.06 µg/mL | ≤ 0.06 µg/mL |  | 
CNC(CC(C)C)C(=O)NC1C(=O)NC(CC(N)=O)C(=O)NC2C(=O)NC3C(=O)NC(C(=O)NC(C(=O)O)c4cc(O)cc(O)c4-c4cc3ccc4O)C(OC3CC(C)(N)C(O)C(C)O3)c3ccc(c(Cl)c3)Oc3cc2cc(c3OC2OC(CO)C(O)C(O)C2OC2CC(C)(NCc3ccc4c(c3)CCCC4)C(O)C(C)O2)Oc2ccc(cc2Cl)C1O (stereo not drawn) [Compound 168] | 0.10 µg/mL | 3.4 µg/mL | ≤ 0.06 µg/mL | ≤ 0.06 µg/mL | ≤ 0.06 µg/mL | 0.5 µg/mL (≈ 0.288 µM) | 0.5 µg/mL (≈ 0.288 µM) | 0.5 µg/mL (≈ 0.288 µM) | ≤ 0.06 µg/mL | ≤ 0.06 µg/mL | 0.5 µg/mL (≈ 0.288 µM) | 0.25 µg/mL (≈ 0.144 µM) | ≤ 0.06 µg/mL | 2 µg/mL (≈ 1.15 µM) |  | ≤ 0.06 µg/mL | ≤ 0.06 µg/mL | ≤ 0.06 µg/mL | 1 µg/mL (≈ 0.576 µM) | 2 µg/mL (≈ 1.15 µM) | 
CNC(CC(C)C)C(=O)NC1C(=O)NC(CC(N)=O)C(=O)NC2C(=O)NC3C(=O)NC(C(=O)NC(C(=O)O)c4cc(O)cc(O)c4-c4cc3ccc4O)C(OC3CC(C)(N)C(O)C(C)O3)c3ccc(c(Cl)c3)Oc3cc2cc(c3OC2OC(CO)C(O)C(O)C2OC2CC(C)(NCC3=CCC4CC3C4(C)C)C(O)C(C)O2)Oc2ccc(cc2Cl)C1O (stereo not drawn) [Compound 170] | 0.22 µg/mL | 8.0 µg/mL | 0.5 µg/mL (≈ 0.29 µM) | ≤ 0.06 µg/mL | ≤ 0.06 µg/mL | 0.5 µg/mL (≈ 0.29 µM) | 1 µg/mL (≈ 0.579 µM) | 1 µg/mL (≈ 0.579 µM) | 2 µg/mL (≈ 1.16 µM) |  | 4 µg/mL (≈ 2.32 µM) | 2 µg/mL (≈ 1.16 µM) | ≤ 0.06 µg/mL | 4 µg/mL (≈ 2.32 µM) | 1 µg/mL (≈ 0.579 µM) | ≤ 0.06 µg/mL | 0.5 µg/mL (≈ 0.29 µM) | ≤ 0.06 µg/mL |  | 4 µg/mL (≈ 2.32 µM) | MIC (Entercoccus faecium 276): 0.5 µg/mL (≈ 0.29 µM)
CNC(CC(C)C)C(=O)NC1C(=O)NC(CC(N)=O)C(=O)NC2C(=O)NC3C(=O)NC(C(=O)NC(C(=O)O)c4cc(O)cc(O)c4-c4cc3ccc4O)C(OC3CC(C)(N)C(O)C(C)O3)c3ccc(c(Cl)c3)Oc3cc2cc(c3OC2OC(CO)C(O)C(O)C2OC2CC(C)(NCc3ccc(NC(=O)c4cccc(F)c4)cc3)C(O)C(C)O2)Oc2ccc(cc2Cl)C1O (stereo not drawn) [Compound 194] | 0.083 µg/mL | 2.4 µg/mL | ≤ 0.06 µg/mL | ≤ 0.06 µg/mL | ≤ 0.06 µg/mL | ≤ 0.06 µg/mL | 0.5 µg/mL (≈ 0.275 µM) | 0.5 µg/mL (≈ 0.275 µM) | ≤ 0.06 µg/mL | ≤ 0.06 µg/mL | 1 µg/mL (≈ 0.55 µM) | ≤ 0.06 µg/mL | ≤ 0.06 µg/mL | 2 µg/mL (≈ 1.1 µM) | 0.5 µg/mL (≈ 0.275 µM) | ≤ 0.06 µg/mL | 0.5 µg/mL (≈ 0.275 µM) | ≤ 0.06 µg/mL |  | 2 µg/mL (≈ 1.1 µM) | 
